Here are results for four molecules from ChEMBL document CHEMBL4376815, “The Development Process for Discovery and Clinical Advancement of Modern Antimalarials” (J Med Chem, 2019).

The subject of data set [1] is Plasmodium falciparum. In words: Antimalarial activity against Plasmodium falciparum 3D7. The class given is functional, organism-based.
Data set [2] can be described thus: AUC (0 to infinity) in human at 25 to 1200 mg, po measured up to 480 hrs by HPLC-MS/MS analysis. The class given is ADME, organism-based. Particulars: in vivo.
A short description of data set [3]: Half life in human at 25 to 1200 mg, po measured up to 480 hrs by HPLC-MS/MS analysis. The conditions noted are these: in vivo. It counts as ADME, organism-based.
The nature of data set [4]: Tmax in human at 25 to 1200 mg, po measured up to 480 hrs by HPLC-MS/MS analysis. The class given is ADME, organism-based. Particulars: in vivo.
Data set [5] in a line: Drug level in human Plasma treated with [14C]-KAE609 assessed metabolite formation. It counts as ADME, cell-free.
Data set [6] in a line: Inhibition of Plasmodium falciparum PI4K by pull down assay. Details: species or system Plasmodium vivax.
For data set [7], the target named is Dihydroorotate dehydrogenase (quinone), mitochondrial (Homo sapiens, UniProt Q02127). The data set is described as follows: Inhibition of human DHODH expressed in Escherichia coli using L-dihydroorotate as substrate.
Data set [8] deals with T1, Dihydroorotate dehydrogenase (Plasmodium falciparum, UniProt Q54A96).
T1 sequence (Q54A96 whole entry): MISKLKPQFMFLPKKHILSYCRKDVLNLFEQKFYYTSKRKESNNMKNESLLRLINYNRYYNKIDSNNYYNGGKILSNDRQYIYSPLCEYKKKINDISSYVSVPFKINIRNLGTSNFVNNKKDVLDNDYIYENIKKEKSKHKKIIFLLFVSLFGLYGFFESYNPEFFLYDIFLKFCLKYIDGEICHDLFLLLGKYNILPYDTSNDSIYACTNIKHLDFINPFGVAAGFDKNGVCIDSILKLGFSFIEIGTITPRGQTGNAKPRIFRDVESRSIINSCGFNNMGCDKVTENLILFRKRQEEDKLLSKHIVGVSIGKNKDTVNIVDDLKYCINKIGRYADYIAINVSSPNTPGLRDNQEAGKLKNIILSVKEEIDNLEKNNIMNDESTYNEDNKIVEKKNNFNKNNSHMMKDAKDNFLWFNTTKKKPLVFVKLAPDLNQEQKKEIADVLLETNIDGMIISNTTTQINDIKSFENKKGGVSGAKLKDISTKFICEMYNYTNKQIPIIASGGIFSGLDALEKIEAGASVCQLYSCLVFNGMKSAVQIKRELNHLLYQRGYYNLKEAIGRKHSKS
In words: Inhibition of Plasmodium falciparum DHODH expressed in Escherichia coli using L-dihydroorotate as substrate.

Data set [9] relates to Plasmodium falciparum. The data set is described as follows: Antimalarial activity against Plasmodium falciparum. The class given is functional, organism-based.

Sequence of Dihydroorotate dehydrogenase (quinone), mitochondrial (Q02127 whole entry): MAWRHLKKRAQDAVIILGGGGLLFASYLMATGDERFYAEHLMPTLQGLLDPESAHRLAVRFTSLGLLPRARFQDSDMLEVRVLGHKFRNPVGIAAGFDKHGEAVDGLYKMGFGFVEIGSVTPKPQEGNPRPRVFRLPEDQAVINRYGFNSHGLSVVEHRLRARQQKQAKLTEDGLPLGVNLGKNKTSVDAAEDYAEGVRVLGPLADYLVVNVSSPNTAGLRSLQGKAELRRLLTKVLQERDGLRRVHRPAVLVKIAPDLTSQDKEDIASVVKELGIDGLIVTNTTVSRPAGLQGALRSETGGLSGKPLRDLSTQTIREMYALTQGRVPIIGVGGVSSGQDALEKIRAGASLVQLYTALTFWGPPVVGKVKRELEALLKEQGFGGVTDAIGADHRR

For orientation: EC50 means the concentration that produces a half-maximal response. Read a low EC50 as higher potency in that assay. By AUC(0-inf) is commonly meant total exposure, with the tail of the curve extrapolated. The low end stands for less exposure, the high end for more exposure. The term half-life denotes the time in which the quantity being followed falls by half. A lower half-life goes with fast loss. In general, Tmax refers to the time at which the peak concentration occurs. Molecule `CC(F)(F)c1nc2nc(CO)cc(Nc3ccc(S(F)(F)(F)(F)F)cc3)n2n1` gave an EC50 in the data set on Plasmodium falciparum [1] of 1.8 µM. The molecule further came in with an AUC(0-inf) in data set [2] of 167 to 1170 µg·h/mL. Also, the half-life in data set [3] lay in the range of 98 to 164 h. The time of peak concentration (Tmax) in data set [4] was in the range of 95 to 143 h.
For `C[C@H]1Cc2c([nH]c3cc(Cl)c(F)cc23)-c2c3cc(Cl)ccc3nc(=O)n21`, in data set [5], the Drug uptake is reported as 8%.
Consider `Nc1ncc(-c2ccc(C(=O)N3CCC(N)C3)cc2)nc1-c1ccc(C(F)(F)F)cc1` (centres undefined), for which the EC50 in [6] was determined as 0.0016 µM.
A word on the IC50: it is the concentration needed to halve the response being measured. Read a high IC50 as lower potency. For the molecule `Cc1cc(Nc2ccc(S(F)(F)(F)(F)F)c(F)c2)n2nc(C(C)(F)F)nc2n1`, the IC50 in data set [7] came to 3.7 µM; in data set [8], 0.01 µM. The molecule further came in with an EC50 with Plasmodium falciparum [9] of 0.002 µM.
